Patent US9446017B2, “Compositions and methods for treating herpes simplex virus” (Augusta University Research Institute, Inc., priority 2005, dated 2016)
Where “and” joins values, the source holds several entries; their conditions need not be identical. Equal values may be shown once.

Key:
HSV1 [1] = experiment: PCR-based assay of viral DNA, band intensity on agarose gel; assay type: cell-based; settings: for DNA band intensity, primers for glycoprotein D, GFP and VP11/12: HSV1 treated with 75 μM
Source text: Nine sets of primers were designed to prime different regions of the HSV1 genome based on published sequences. Two sets of primers were designed to target HSV I glycoprotein D. These include 5′-[…]-3′ (SEQ ID NO:2) for the forward and 5′-[…]-3′ (SEQ ID NO:3) for the reverse. The second set includes 5′-[…]-3′ (SEQ ID NO:4) for the forward and 5′[…]-3′ (SEQ ID NO:5) for the reverse. Next, two sets of primers were designed to target HSV1 glycoprotein B. They are the following: 5′[…]-3′ (SEQ ID NO:6) for the forward and 5′-[…]-3′ (SEQ ID NO:7) for the reverse. The second set includes 5′-[…]-3′(SEQ ID NO:8) for the forward and 5′-[…]-3′ (SEQ ID NO:9) for the reverse. A third set of primers had been previously designed and published on the book Herpes Simplex Virus Protocols by S. Moira Brown and Alasdair R. MacLean. The set includes 5′[…]-3′ (SEQ ID NO:10) for the forward and 5′-[…]-3′ (SEQ ID NO:11) for the reverse. A set of primers was designed to target the Green Fluorescent protein attached to the UL46 gene of HSV 1. It includes 5′-[…]-3′ (SEQ ID NO:14) for the forward and 5′-[…]-3′ (SEQ ID NO:15) for the reverse. A second set of primers designed for the GFP had been previously designed 42. It includes 5′-[…]-3′ (SEQ ID NO:12) for the forward and 5′-[…]-3′ (SEQ ID NO:13) for the reverse. Finally, two sets of primers were designed to target HSV1 tegument protein VP11/12 that corresponds to the UL46 gene. They are the following: 5′-[…]-3′ (SEQ ID NO:16) for the forward and 5′-[…]-3′ (SEQ ID NO:17) for the reverse. The second set includes 5′-[…]-3′ (SEQ ID NO:18) for the forward and 5′[…]-3′ (SEQ ID NO:19) for the reverse. The reaction mix included 1 μL of the extracted DNA, 1 μL of forward and 1 μL of reverse primers, 12.5 μL of Master Mix, and 9.5 μL of diH2O. The mix was put into PCR tubes and placed into a Labnet MultiGene II thermal cycler (Labnet International, Edison N.J.). The reaction profile was initial denaturation at 95° C. for 2 minutes followed by cycles of denaturation at 95° C. for 30 seconds, annealing at 60° C. for 1 minute and extension at 72° C. for 30 seconds. The last step included a final extension period at 72° C. for 10 minutes. […]
Polymerase chain reaction products were analyzed and visualized on 1% agarose gels. […] The gel was then analyzed under UV light using Kodak Image Station 440 CF (Perkin Elmer Life Sciences, Waltham, Mass.).
Cells were grown on 60 mm plates and allowed to reach confluency. […] DNA concentration was then measured by using a Nanodrop Specrophotometer.
DNA extracted from HSV1/Vero cells and EGCG-ester HSV1/Vero cells was purified and isolated and the amount and purity was determined by Nanodrop spectrophotometer ND1000. […]

[2] = for a topical application; cited from earlier work
HSV1 [3] = experiment: Real time PCR of HSV1 glycoprotein D; assay type: cell-based; settings: for fold difference in the amount of glycoprotein D DNA vs HSV1/Vero: Ct based; for inhibits HSV1: FIG. 10
Experimental: A set of primer that primes HSV1 glycoprotein D was designed for use in Real time polymerase chain reaction. This set includes 5″-[…]-3′ (SEQ ID NO:20) for the forward and 5′[…]-3′ (SEQ ID NO:21) for the reverse. Each tube (except the negative controls-no DNA) contained […] of Fast SYBR green master mix (ABI Fast SYBR Green Master Mix), 1 μL of forward primer, 1 μL of reverse primer, […] of genomic DNA and 6 μL of […]. The samples were run on an ABI StepOnePlus Real-Time PCR System. The Run methods were: a holding stage at 95° C. for 5 minutes followed by 40 cycles of denaturation at 95° C. for 1 minute, annealing at 60° C. for 1 minute and extension at 72° C. for 30 seconds. Next, the melting curve stage included 95° C. for 15 seconds, followed by 60° C. for 1 minute, and 95° C. for 15 seconds.
Cells were grown on 60 mm plates and allowed to reach confluency. Cells were then infected with HSV I treated and HSV1 non-treated for 1 hour at 37° C. and 5% CO2. After absorption time, cells were washed with PBS and media was added to the plates. After 12 hours, cells were trypsinized and DNA was extracted using the DNeasy Blood and Tissue Handbook (Qiagen 2006). DNA concentration was then measured by using a Nanodrop Specrophotometer.
The process of real time PCR works by collecting fluorescence data at the end of each cycle of the reaction. The SYBR green dye used in the experiment binds to the double stranded PCR product causing the PCR product to fluoresce. As the reaction continues the instrument recalls the threshold for each sample. The threshold cycle (Ct) is the critical cycle at which the first significance increase in fluorescence is detected. Once the PCR cycles ended, the data were collected and the Ct values for each of the samples were analyzed and the relative quantity (RQ) of fluorescence was reported. The standard for comparing Ct values is that a difference in one Ct is equivalent to a two-fold difference in the amount of DNA. […] of DNA was used for all samples; cells only, HSV1/Vero, and EGCG-ester HSV1/Vero.

HSV-2 = settings: Vero cells; cited from earlier work
HSV = HSV plaque assays using Vero cells with and without EGCG (Example 1); assay type: cell-based; settings: 100 μM applied
Experimental: HSV plaque assays using Vero cells were conducted with and without the addition of epigallocatechin gallate (EGCG).

HSV-1 = settings: cited from earlier work

Compound | DNA band intensity, primers for glycoprotein D, GFP and VP11/12 (HSV1 [1]) | stability [2] | fold difference in the amount of glycoprotein D DNA vs HSV1/Vero (HSV1 [3]) | inhibits HSV1 (HSV1 [3]) | inhibition of HSV infection (HSV-2) | viral plaques (HSV) | viral production (HSV-1; Vero cells treated following adsorption and entry of HSV-1) | inhibition of HSV infection (HSV-1; Vero cells) | band intensity of glycoprotein D PCR product, average (HSV1 [1]; 75 μM, control average 525.29) | band intensity of glycoprotein D PCR product (single reading) (HSV1 [1]; 75 μM, control readings 445.92, 588.24, 541.73)
O=C(O[C@@H]1Cc2c(O)cc(O)cc2O[C@@H]1c1cc(O)c(O)c(O)c1)c1cc(O)c(O)c(O)c1 [EGCG, (−)-epigallocatechin-3-gallate, reference compound] | decreased | highly unstable and oxidizes very quickly | 32 fold | 95% | successfully inhibited HSV infection in a concentration dependent manner | no viral plaques were observed | does not inhibit the viral production | successfully inhibited HSV infection in a concentration dependent manner | – | –
CCCCCCCCCCCCCCCC(=O)Oc1c(O)cc([C@H]2Oc3cc(O)cc(O)c3C[C@H]2OC(=O)c2cc(O)c(O)c(O)c2)cc1O [EGCG-ester] | further decreased | – | 256 fold | 99.46% | – | – | – | – | 400.05 | 353.87 and 438.47 and 407.82
